Results as given in ChEMBL document CHEMBL1150042, “The synthesis of BRL 49653 - a novel and potent antihyperglycaemic agent” (Bioorg Med Chem Lett, 1994).

Organism: Mus musculus
Test: Minimum effective dose for anti-hyperglycaemic activity was determined in C57B1/6 ob/ob obese mouse
Format: functional

CN(CCOc1ccc(CC2SC(=O)NC2=O)cc1)c1nc2ccccc2o1 (stereo not drawn) [BRL-48482] was tested. Which MED did it give?
The MED was 3 uM.kg/diet.

Which MED does the source give for O=C(NCCOc1ccc(CC2SC(=O)NC2=O)cc1)Nc1ccccc1 (stereo not drawn) here?
Its MED is 100 uM.kg/diet.

With Cc1c(C)c2c(c(C)c1O)CCC(C)(COc1ccc(CC3SC(=O)NC3=O)cc1)O2 (stereo not drawn) [TROGLITAZONE] as the compound, how does the MED read?
The MED was 600 uM.kg/diet.

O=C1NC(=O)C(Cc2ccc3c(c2)CC[C@H](Cc2ccccc2)O3)S1 (stereo partly drawn) [ENGLITAZONE] was tested. Which MED did it give?
Its MED is 200 uM.kg/diet.

With CC1(COc2ccc(CC3SC(=O)NC3=O)cc2)CCCC(O)C1 (stereo not drawn) as the compound, how does the MED read?
The MED was 500 uM.kg/diet.

Which MED does the source give for CN(CCOc1ccc(CC2SC(=O)NC2=O)cc1)c1ccccn1 (stereo not drawn) [ROSIGLITAZONE] here?
The MED was 3 µM/kg.

With CC1(COc2ccc(CC3SC(=O)NC3=O)cc2)CCCCC1 (stereo not drawn) [CIGLITAZONE] as the compound, how does the MED read?
The MED was 3000 uM.kg/diet.

For CCc1ccc(CCOc2ccc(CC3SC(=O)NC3=O)cc2)nc1 (stereo not drawn) [PIOGLITAZONE], which MED is on record?
The MED was 200 uM.kg/diet.
